According to patent publication US9833497B2, “Human originated EGF domain proteins and use of the same” (CHENGDU SOURCEBIO LIMITED-LIABILITY COMPANY, priority 2013, dated 2017):

Experiments:
Format in all cases: cell-based
[1] = tested on: E. coli DH5α; test: Antibacterial activity: MIC and growth curve against E. coli DH5α in 96-well plate; conditions: minimal inhibitory concentration against E. coli DH5α; 96-well plate, 5×10^5 CFU/mL, 37° C., judged after 8 h
How it was run: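 Log-phase bacteria (OD600 ~0.5) resuspended in LB at 5×10^5 CFU/mL, exposed to recombinant protein at 50, 25, 12.5 μg/mL final in triplicate, 37 °C shaking at 175 rpm. OD600 read every 30 min; MIC is lowest concentration showing no growth.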

[2] = tested on: E. coli BL21; test: MIC against Gram-negative bacteria: E. coli BL21; conditions: E. coli BL21; 10 h cultivation at 37° C.; 5×10^5 CFU/mL
How it was run: (§1)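 Broth microdilution, LB medium, final inoculum 5×10^5 CFU/mL from McFarland 0.5 cultures. Recombinant human EGF domain proteins tested in two-fold steps, n=3. MIC: lowest concentration, no growth.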

[3] = tested on: Pseudomonas aeruginosa; test: MIC against Gram-negative bacteria: Pseudomonas aeruginosa; conditions: P. aeruginosa; 10 h cultivation at 37° C.; 5×10^5 CFU/mL
How it was run: as §1

[4] = tested on: Klebsiella pneumonia; test: MIC against Gram-negative bacteria: Klebsiella pneumonia; conditions: K. pneumonia; 10 h cultivation at 37° C.; 5×10^5 CFU/mL
How it was run: as §1

[5] = tested on: Enterobacter cloacae; test: MIC against Gram-negative bacteria: Enterobacter cloacae; conditions: E. cloacae; 10 h cultivation at 37° C.; 5×10^5 CFU/mL
How it was run: as §1

[6] = tested on: Aeromonas hydrophila; test: MIC against Gram-negative bacteria: Aeromonas hydrophila; conditions: A. hydrophila; 10 h cultivation at 37° C.; 5×10^5 CFU/mL
How it was run: as §1

[7] = tested on: Citrobacter diversus; test: MIC against Gram-negative bacteria: Citrobacter diversus; conditions: C. diversus; 10 h cultivation at 37° C.; 5×10^5 CFU/mL
How it was run: as §1

[8] = tested on: Moraxella catarrhalis; test: MIC against Gram-negative bacteria: Moraxella catarrhalis; conditions: M. catarrhalis; 10 h cultivation at 37° C.; 5×10^5 CFU/mL
How it was run: as §1

[9] = tested on: Proteus mirabilis; test: MIC against Gram-negative bacteria: Proteus mirabilis; conditions: P. mirabilis; 10 h cultivation at 37° C.; 5×10^5 CFU/mL
How it was run: as §1

[10] = tested on: Proteus vulgaris; test: MIC against Gram-negative bacteria: Proteus vulgaris; conditions: P. vulgaris; 10 h cultivation at 37° C.; 5×10^5 CFU/mL
How it was run: as §1

[11] = tested on: Serratia marcescens; test: MIC against Gram-negative bacteria: Serratia marcescens; conditions: S. marcescens; 10 h cultivation at 37° C.; 5×10^5 CFU/mL
How it was run: as §1

| Substance | MIC [1] [µg/mL] | MIC (μg/mL) E. coli BL21 [2] [µg/mL] | MIC (μg/mL) P. aeruginosa [3] [µg/mL] | MIC (μg/mL) K. pneumonia [4] [µg/mL] | MIC (μg/mL) E. cloacae [5] [µg/mL] | MIC (μg/mL) A. hydrophila [6] [µg/mL] | MIC (μg/mL) C. diversus [7] [µg/mL] | MIC (μg/mL) M. catarrhalis [8] [µg/mL] | MIC (μg/mL) P. mirabilis [9] [µg/mL] | MIC (μg/mL) P. vulgaris [10] [µg/mL] | MIC (μg/mL) S. marcescens [11] [µg/mL] |
| --- | --- | --- | --- | --- | --- | --- | --- | --- | --- | --- | --- |
| PRT220 (DINECETTNECREDEMCWNYHGGFRCYPRNPCQDPYILTPENRCV; listed as Homo sapiens) | 25 | 25 | 12.5 | 25 | 12.5 | 25 | 12.5 | 12.5 | 12.5 | 12.5 | 50 |
| PRT221 (YTECTDGYEWDPDSQHCRDVNECLTIPEACKGEMKCINHYGGYLCL; listed as Homo sapiens) | 12.5 | 50 | 50 | 12.5 | 25 | 50 | 25 | 12.5 | 25 | 50 | 12.5 |
| PRT222 (DVDECAQALHDCRPSQDCHNLPGSYQCTCPDGYRKIGPECV; listed as Homo sapiens) | 50 | 12.5 | 12.5 | 12.5 | 25 | 12.5 | 25 | 12.5 | 25 | 12.5 | 25 |
| PRT224 (DVNECDMGAPCEQRCFNSYGTFLCRCHQGYELHRDGFSCS; listed as Homo sapiens) | 25 | 12.5 | 25 | 12.5 | 12.5 | 12.5 | 12.5 | 12.5 | 12.5 | 12.5 | 50 |
| PRT225 (DIDECSYSSYLCQYRCINEPGRFSCHCPQGYQLLATRLCQ; listed as Homo sapiens) | 12.5 | 50 | 12.5 | 50 | 25 | 12.5 | 25 | 50 | 25 | 12.5 | 25 |
| PRT226 (DIDECESGAHQCSEAQTCVNFHGGYRCVDTNRCVEPYIQVSENRCL; listed as Homo sapiens) | 50 | 25 | 12.5 | 25 | 50 | 12.5 | 50 | 12.5 | 12.5 | 12.5 | 12.5 |
| PRT227 (KGNNCRDSTLCPAYATCTNTVDSYYCACKQGFLSSNGQNHFKDPGVRCK; listed as Homo sapiens) | 12.5 | 12.5 | 12.5 | 12.5 | 12.5 | 12.5 | 50 | 25 | 12.5 | 25 | 50 |
| PRT229 (DINECLTSSVCPEHSDCVNSMGSYSCSCQVGFISRNSTCE; listed as Homo sapiens) | 50 | 25 | 12.5 | 12.5 | 12.5 | 12.5 | 12.5 | 12.5 | 12.5 | 25 | 12.5 |
| PRT230 (DVDECADPRACPEHATCNNTVGNYSCFCNPGFESSSGHLSFQGLKASCE; listed as Homo sapiens) | 25 | 12.5 | 25 | 12.5 | 25 | 12.5 | 25 | 12.5 | 50 | 12.5 | 50 |
| PRT232 (DIDECRQDPSTCGPNSICTNALGSYSCGCIAGFHPNPEGSQKDGNFSCQ; listed as Homo sapiens) | 25 | 12.5 | 25 | 12.5 | 25 | 12.5 | 25 | 12.5 | 25 | 12.5 | 25 |
| PRT233 (DSRGCARWCPQDSSCVNATACRCNPGFSSFSEIITTPMETCD; listed as Homo sapiens) | 12.5 | 25 | 12.5 | 25 | 12.5 | 25 | 12.5 | 25 | 100 | 25 | 12.5 |
| PRT234 (DINECATLSKVSCGKFSDCWNTEGSYDCVCSPGYEPVSGAKTFKNESENTCQ; listed as Homo sapiens) | 25 | 50 | 25 | 12.5 | 25 | 12.5 | 25 | 12.5 | 25 | 12.5 | 25 |
| PRT236 (TKTSCAKCPPNASCVNNTHCTCNHGYTSGSGQKLFTFPLETCN; listed as Homo sapiens) | 12.5 | 12.5 | 100 | 12.5 | 12.5 | 25 | 12.5 | 25 | 12.5 | 25 | 12.5 |
